Values of other authors, collected in US8808752B2, “Controlled release particles and method for producing the same” (priority 2009, dated 2014).

Row | SMILES | water solubility (in words) | water solubility
1 | C=C(C)C(=O)OCCOC(=O)C(=C)C [Ethylene glycol dimethacrylate] | water-insoluble | 
2 | CCCC1COC(Cn2cncn2)(c2ccc(Cl)cc2Cl)O1 (centres unmarked) [Propiconazole, 1-[2-(2,4-dichlorophenyl)-4-n-propyl-1,3-dioxolane-2-ylmethyl]-1H-1,2,4-triazole, reference compound] |  | 110 ppm
3 | C=C(C)C(=O)O [Methacrylic acid] |  | 8.9 wt %
4 | CSc1nc(NC2CC2)nc(NC(C)(C)C)n1 [MBACT, 2-methylthio-4-t-butylamino-6-cyclopropylamino-s-triazine, reference compound] |  | 7 ppm
5 | C=C(C)C(=O)OCCCC [n-Butyl methacrylate] |  | 0.08 wt %
